Laboratory results reported in patent US20170334899A1, “AMINO-SUBSTITUTED ISOTHIAZOLES” (Bayer Pharma Aktiengesellschaft, priority 2014, published 2017).

Tests used:
[1] = molecular target: T1, CDK2/CycE (Homo sapiens, UniProt P24941); test: CDK2/CycE kinase assay (TR-FRET); type: biochemical; conditions: avg, read-out: CDK2 avg (IC50 [mol/l])
T1 construct: GST; purchased ProQinase GmbH (Freiburg, Germany); host or cells: insect cells (Sf9)
In short: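 Read-out is a TR-FRET 665/620 nm emission ratio from EDTA-stopped reactions detected with anti-pRB(pSer807/pSer811), Eu-labelled anti-mouse IgG and streptavidin-XL665, scaled between no-enzyme and uninhibited wells. Reaction: Sf9-expressed GST-CDK2/GST-CycE, 15 min compound preincubation, 10 μM ATP, 0.75 μM biotin-peptide, 25 min, 22° C., pH 8.0 Tris buffer.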

[2] = tested on: HeLa; test: Proliferation assay (crystal violet), HeLa; type: cell-based; conditions: Homo sapiens, HeLa, 96 h, HeLa cells; 4 days incubation; crystal violet staining; read-out: IC50 inhibition of proliferation, HeLa
In short: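 Four-day compound exposure (0.001-10 μM, 0.5% DMSO final) began 24 h after seeding 1000-5000 cells/well in medium with 10% fetal calf serum. Cell number read by crystal violet absorbance at 595 nm, scaled between day-zero plate and untreated control; 4-parameter fit gave IC50.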

IC50 [1] [µM]	IC50 [2] [µM]	Compound
> 20	0.29	Cc1nsc(Nc2cnc(C(F)(F)F)cn2)c1C(=O)Nc1ccc(F)c(O[C@@H]2CCN(CCC(F)(F)F)C2)c1 [Example 414, N-(4-Fluoro-3-{[(3R)-1-(3,3,3-trifluoropropyl)pyrrolidin-3-yl]oxy}phenyl)-3-methyl-5-{[5-(trifluoromethyl)pyrazin-2-yl]amino}-1,2-thiazole-4-carboxamide]
> 20	0.35	Cc1nsc(Nc2cnc(C(F)(F)F)cn2)c1C(=O)Nc1ccc(F)c(O[C@H]2CCN(CCC(F)(F)F)C2)c1 [Example 415, N-(4-Fluoro-3-{[(3S)-1-(3,3,3-trifluoropropyl)pyrrolidin-3-yl]oxy}phenyl)-3-methyl-5-{[5-(trifluoromethyl)pyrazin-2-yl]amino}-1,2-thiazole-4-carboxamide]
> 20	0.25	Cc1nsc(Nc2cnc(C(F)(F)F)cn2)c1C(=O)Nc1ccc(F)c(O[C@H]2CCN(CC(F)(F)F)C2)c1 [Example 416, N-(4-Fluoro-3-{[(35)-1-(2,2,2-trifluoroethyl)pyrrolidin-3-yl]oxy}phenyl)-3-methyl-5-{[5-(trifluoromethyl)pyrazin-2-yl]amino}-1,2-thiazole-4-carboxamide]
> 20	0.41	Cc1nsc(Nc2cnc(C(F)(F)F)cn2)c1C(=O)Nc1ccc(F)c(O[C@H]2CCN(CC(F)F)C2)c1 [Example 417, N-(3-{[(3S)-1-(2,2-Difluoroethyl)pyrrolidin-3-yl]oxy}-4-fluorophenyl)-3-methyl-5-{[5-(trifluoromethyl)pyrazin-2-yl]amino}-1,2-thiazole-4-carboxamide]
> 20	0.76	Cc1nsc(Nc2cnc(C(F)(F)F)cn2)c1C(=O)Nc1ccc(F)c(OC[C@H]2CCCN(CC(F)(F)F)C2)c1 [Example 419, N-(4-Fluoro-3-{[(3S)-1-(2,2,2-trifluoroethyl)piperidin-3-yl]methoxy}phenyl)-3-methyl-5-{[5-(trifluoromethyl)pyrazin-2-yl]amino}-1,2-thiazole-4-carboxamide]
≥ 20	1.3	Cc1nsc(Nc2cnc(C(F)(F)F)cn2)c1C(=O)Nc1ccc(OCCNC(=O)C(F)(F)F)nc1 [Example 425, 3-Methyl-N-(6-{2-[(trifluoroacetyl)amino]ethoxy}pyridin-3-yl)-5-{[5-(trifluoro-methyl)pyrazin-2-yl]amino}-1,2-thiazole-4-carboxamide]
> 20	1.3	Cc1nsc(Nc2cnc(C(F)(F)F)cn2)c1C(=O)Nc1ccc(OCCCNC(=O)C(F)(F)F)nc1 [Example 428, 3-Methyl-N-(6-{3-[(trifluoroacetyl)amino]propoxy}pyridin-3-yl)-5-{[5-(trifluoro-methyl)pyrazin-2-yl]amino}-1,2-thiazole-4-carboxamide]
> 20	0.92	Cc1nsc(Nc2cncc(C(F)(F)F)n2)c1C(=O)Nc1ccc(OCCN(C)C(=O)OC(C)(C)C)nc1 [Example 430, tert-Butyl methyl{2-[(5-{[(3-methyl-5-{[6-(trifluoromethyl)pyrazin-2-yl]amino}-1,2-thiazol-4-yl)carbonyl]amino}pyridin-2-yl)oxy]ethyl}carbannate]

Continued, molecule first:

Compound	IC50 [1] [µM]	IC50 [2] [µM]
Cc1nsc(Nc2cnc(C(F)(F)F)cn2)c1C(=O)Nc1ccc(F)c(OC[C@H]2CCCN(CCC(F)(F)F)C2)c1 [Example 418, N-(4-Fluoro-3-{[(3S)-1-(3,3,3-trifluoropropyl)piperidin-3-yl]methoxy}phenyl)-3-methyl-5-{[5-(trifluoromethyl)pyrazin-2-yl]amino}-1,2-thiazole-4-carboxamide]	> 20	1.2
Cc1nsc(Nc2cnc(C(F)(F)F)cn2)c1C(=O)Nc1ccc(CCC2CCN(CCC(F)(F)F)CC2)nc1 [Example 420, 3-Methyl-5-{[5-(trifluoromethyl)pyrazin-2-yl]amino}-N-(6-{2-[1-(3,3,3-trifluoro-propyl)piperidin-4-yl]ethyl}pyridin-3-yl)-1,2-thiazole-4-carboxamide]	> 20	0.63
Cc1nsc(Nc2cnc(C(F)(F)F)cn2)c1C(=O)Nc1ccc(F)c(OCCCNC(=O)C(F)(F)F)c1 [Example 427, N-(4-Fluoro-3-{3-[(trifluoroacetyl)amino]propoxy}phenyl)-3-methyl-5-{[5-(trifluoro-methyl)pyrazin-2-yl]amino}-1,2-thiazole-4-carboxamide]	≥ 20	0.86
Cc1nsc(Nc2cnc(C(F)(F)F)cn2)c1C(=O)Nc1ccc(OCCN(C)C(=O)OC(C)(C)C)nc1 [Example 429, tert-Butyl methyl{2-[(5-{[(3-methyl-5-{[5-(trifluoromethyl)pyrazin-2-yl]amino}-1,2-thiazol-4-yl)carbonyl]amino}pyridin-2-yl)oxy]ethyl}carbannate]	> 20	0.26
Cc1nsc(Nc2cnc(C(F)(F)F)cn2)c1C(=O)Nc1ccc(OC2CCNCC2)c(F)c1 [Example 431, N-[3-Fluoro-4-(piperidin-4-yloxy)phenyl]-3-methyl-5-{[5-(trifluoromethyl)pyrazin-2-yl]amino}-1,2-thiazole-4-carboxamide]	> 20	> 10
Cc1nsc(Nc2cnc3ccccc3n2)c1C(=O)Nc1cccc(NC(=O)C(F)(F)F)c1 [Example 432, 3-Methyl-5-(quinoxalin-2-ylamino)-N-{3-[(trifluoroacetyl)amino]phenyl}-1,2-thiazole-4-carboxamide]	> 20	> 10
Cc1nsc(Nc2cnc3ccccc3n2)c1C(=O)Nc1ccc(NCCN(C)C(=O)OC(C)(C)C)nc1 [Example 434, tert-Butyl methyl(2-{[5-({[3-methyl-5-(quinoxalin-2-ylamino)-1,2-thiazol-4-yl]carbonyl}amino)pyridin-2-yl]amino}ethyl)carbamate]	> 20	8
CC(=O)Nc1ccc(NC(=O)c2c(C)nsc2Nc2ccc(C#N)cn2)cn1 [Example 435, N-(6-Acetamidopyridin-3-yl)-5-[(5-cyanopyridin-2-yl)amino]-3-methyl-1,2-thiazole-4-carboxamide]	> 20	> 10
